# Target: T1, PAPD5 (Homo sapiens, UniProt Q8NDF8)
# T1 construct: made in house
# Test: High-throughput luminescence (KinaseGlo) RNA polyadenylation assay, ATP utilization by recombinant PAPD5
# Format: biochemical
# Settings: Table 4 (entries of Table 5), ratio of luminescence with inhibitor to DMSO; for Fold-change determined at compound concentration 33 μM: 33 μM compound; for Fold-change determined at compound concentration 100 μM: 100 μM compound, higher = higher inhibition
# Protocol: Optimal conditions for an in vitro RNA polyadenylation assay using recombinant PAPD5, ATP and an oligonucleotide substrate were identified. The HTS assay involved ATP utilization by PAPD5, which reads out as a decreased luminescence signal produced by luciferase (KinaseGlo, Promega, Madison, WI).
# 100 nl of compound dissolved in DMSO was transferred to each well of the assay plate via pin transfer. For negative control wells, DMSO alone was added. Plates were gently vortexed for 5 seconds, then incubated for 2 hours at room temperature.
# After 2 hours, 5 ul of luciferase (Promega KinaseGlo, Madison, WI) was added using a MultiDrop Combi (Thermo Fisher Scientific, Waltham, MA). The mixture was gently vortexed for 5 seconds and incubated for 10 minutes at room temperature. Plates were spun for 1 minute prior to luminescence measurements. Luminescent measurements were quantitated using a PerkinElmer EnVision™ plate reader.
# ˜100,000 compounds from various libraries at the ICCB-Longwood were screened in this manner in duplicate.
# The fold change was the ratio of luminescence from a sample with inhibitor compared to that with DMSO. Thus, a higher number indicates higher inhibition.
# T1 sequence (Q8NDF8 68-698 isoform Q8NDF8-5): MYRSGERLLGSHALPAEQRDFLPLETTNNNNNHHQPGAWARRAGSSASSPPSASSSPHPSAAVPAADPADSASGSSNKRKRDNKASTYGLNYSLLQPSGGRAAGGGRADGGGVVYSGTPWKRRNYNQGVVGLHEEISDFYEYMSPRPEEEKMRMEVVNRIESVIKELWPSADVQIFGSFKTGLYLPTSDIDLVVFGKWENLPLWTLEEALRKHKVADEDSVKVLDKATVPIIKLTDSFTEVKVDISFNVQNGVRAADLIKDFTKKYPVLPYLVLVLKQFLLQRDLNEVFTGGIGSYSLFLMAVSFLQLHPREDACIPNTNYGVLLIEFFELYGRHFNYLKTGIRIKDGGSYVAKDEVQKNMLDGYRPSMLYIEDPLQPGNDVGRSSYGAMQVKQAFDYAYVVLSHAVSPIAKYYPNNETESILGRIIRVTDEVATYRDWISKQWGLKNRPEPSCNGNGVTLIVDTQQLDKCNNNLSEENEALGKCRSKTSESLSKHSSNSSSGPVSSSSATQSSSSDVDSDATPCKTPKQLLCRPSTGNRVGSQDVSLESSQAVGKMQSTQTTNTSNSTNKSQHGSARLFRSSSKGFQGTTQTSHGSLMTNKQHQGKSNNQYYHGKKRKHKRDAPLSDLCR
Fold-change determined at compound concentration 33 μM,Fold-change determined at compound concentration 100 μM,SMILES
1.163,1.531,"CCCCN(CCCC)CCCNC(=O)c1ccc2c(c1)sc1nc(-c3ccc(OC)cc3)cn12 [Entry 186, N-[3-(dibutylamino)propyl]-2-(4-methoxyphenyl)imidazo[2,1-b][1,3]benzothiazole-7-carboxamide]"
1.091,1.206,"Cc1ccc(-n2nc3c(=O)n(CCCC(=O)NCc4ccccc4C)nc(C)c3c2C)cc1 [Entry 240, 4-[3,4-dimethyl-2-(4-methylphenyl)-7-oxopyrazolo[3,4-d]pyridazin-6-yl]-N-[(2-methylphenyl)methyl]butanamide]"
1.068,1.277,"Cc1ccc2[nH]c(=O)c3cc(C(=O)O)sc3c2c1 [Entry 220, 8-methyl-4-oxo-5H-thieno[3,2-c]quinoline-2-carboxylic acid]"
1.314,1.957,"CCOC(=O)Cc1cc(=O)oc2cc(O)cc(O)c12 [Entry 128, Ethyl (5,7-dihydroxy-2-oxo-2H-chromen-4-yl)acetate]"
1.073,1.229,"Cc1nn(-c2ccc(Cl)cc2)c2sc(C(=O)O)cc12 [Entry 204, 1-(4-Chloro-phenyl)-3-methyl-1H-thieno[2,3-c]pyrazole-5-carboxylic acid]"
1.13,1.364,"CCc1nc2[nH]c(-c3ccc(C)cc3)cc(=O)n2n1 [Entry 158, 2-ethyl-5-(4-methylphenyl)[1,2,4]triazolo[1,5-a]pyrimidin-7(4H)-one]"
1.164,1.447,"Cn1c(=O)c2nc(SCC(=O)O)n(CCc3ccccc3)c2n(C)c1=O [Entry 79, 2-[1,3-dimethyl-2,6-dioxo-9-(2-phenylethyl)purin-8-yl]sulfanylacetic acid]"
1.05,1.215,"Cc1nnc2ccc(-n3ncc4c3NC(=O)CC4c3ccc(O)cc3)nn12 (stereo not drawn) [Entry 148, 4-(4-hydroxyphenyl)-1-(3-methyl[1,2,4]triazolo[4,3-b]pyridazin-6-yl)-1,4,5,7-tetrahydro-6H-pyrazolo[3,4-b]pyridin-6-one]"
1.077,1.218,"O=C(NCc1ccccn1)C1CCCN(c2ncnc3c2oc2ccccc23)C1 (stereo not drawn) [Entry 37, 1-([1]benzofuro[3,2-d]pyrimidin-4-yl)-N-(pyridin-2-ylmethyl)piperidine-3-carboxamide]"
1.065,1.217,"CCOC(=O)Cn1cnc2sc3c(c2c1=O)CCCC3 [Entry 211, Ethyl (4-oxo-5,6,7,8-tetrahydro[1]benzothieno[2,3-d]pyrimidin-3(4H)-yl)acetate]"
1.272,1.549,"CCOC(=O)c1cccc(NS(=O)(=O)c2cc3[nH]c(=O)c(=O)[nH]c3cc2C)c1 [Entry 139, ethyl 3-[(7-methyl-2,3-dioxo-1,4-dihydroquinoxalin-6-yl)sulfonylamino]benzoate]"
1.085,1.233,"Cc1ccc2cccc(NC(=O)c3cccnc3)c2n1 [Entry 86, N-(2-methylquinolin-8-yl)nicotinamide]"
1.076,1.231,"COc1ccc(OC)c(NC(=O)Cc2c(C(=O)O)[nH]c3ccc(Cl)cc23)c1 [Entry 109, 5-chloro-3-[2-(2,5-dimethoxyanilino)-2-oxoethyl]-1H-indole-2-carboxylic acid]"
1.308,1.807,"CCOC(=O)C1CCN(c2nnc(Cc3ccncc3)c3ccccc23)CC1 [Entry 53, Ethyl 1-[4-(pyridin-4-ylmethyl)phthalazin-1-yl]piperidine-4-carboxylate]"
1.12,1.568,"Cc1ccc(-c2onc3ccc(-c4cc(C(=O)O)c5ccccc5n4)cc23)cc1 [Entry 84, 2-[3-(4-methylphenyl)-2,1-benzoxazol-5-yl]quinoline-4-carboxylic acid]"
1.183,1.309,"CCOC(=O)c1ccc(NC(=O)CCc2c(C)nc3nc[nH]n3c2=O)cc1 [Entry 149, ethyl 4-[3-(5-methyl-7-oxo-1H-[1,2,4]triazolo[1,5-a]pyrimidin-6-yl)propanoylamino]benzoate]"
1.173,1.219,"COc1cccc(-c2nnc3n(CCc4ccccc4)c(=O)c4ccccc4n23)c1O [Entry 225, (1Z)-1-(5-methoxy-6-oxocyclohexa-2,4-dien-1-ylidene)-4-(2-phenylethyl)-2H-[1,2,4]triazolo[4,3-a]quinazolin-5-one]"
1.262,1.592,"c1ccc(CC2CCN(c3nnc(Cc4ccncc4)c4ccccc34)CC2)cc1 [Entry 55, 1-(4-benzylpiperidin-1-yl)-4-(pyridin-4-ylmethyl)phthalazine]"
1.151,1.563,"Cc1c2c(=O)n(-c3nc4ccccc4s3)[nH]c2cc(=O)n1CCc1cnc[nH]1 [Entry 176, 5-(2-(1H-imidazol-5-yl)ethyl)-2-(benzo[d]thiazol-2-yl)-4-methyl-1,2-dihydro-3H-pyrazolo[4,3-c]pyridine-3,6(5H)-dione]"
1.134,1.446,"O=C(O)c1cccc(Nc2c(-c3cc(Br)ccc3O)nc3cnccn23)c1 [Entry 193, 3-{[2-(5-bromo-2-hydroxyphenyl)imidazo[1,2-a]pyrazin-3-yl]amino}benzoic acid]"
1.088,1.621,"COc1cccc(CNC(=O)Nc2cn(CC(C)C)c(=O)c3ccccc23)c1 [Entry 60, 1-[(3-methoxyphenyl)methyl]-3-[2-(2-methylpropyl)-1-oxoisoquinolin-4-yl]urea]"
1.329,1.91,"COc1cccc(C(=O)Nc2nc3nc(-c4ccccc4)cc(=O)n3[nH]2)c1 [Entry 140, 3-methoxy-N-(7-oxo-5-phenyl-1H-[1,2,4]triazolo[1,5-a]pyrimidin-2-yl)benzamide]"
1.106,1.419,"O=C(O)c1ccc(Nc2c(-c3cc(Br)ccc3O)nc3cnccn23)cc1 [Entry 192, 4-{[2-(5-bromo-2-hydroxyphenyl)imidazo[1,2-a]pyrazin-3-yl]amino}benzoic acid]"
1.142,1.518,"Cc1ccc(CNC(=O)Nc2cn(CC(C)C)c(=O)c3ccccc23)cc1 [Entry 57, 1-[(4-methylphenyl)methyl]-3-[2-(2-methylpropyl)-1-oxoisoquinolin-4-yl]urea]"
1.195,1.653,"CC(Oc1ccc2c3c(c(=O)oc2c1)CCC3)C(=O)O (stereo not drawn) [Entry 131, 2-[(4-Oxo-1,2,3,4-tetrahydrocyclopenta[c]chromen-7-yl)oxy]propanoic acid]"
1.207,1.631,"Cc1ccc(-n2c(N3CCCC(C(=O)O)C3)nc3ccsc3c2=O)cc1 (stereo not drawn) [Entry 38, 1-[3-(4-methylphenyl)-4-oxo-3,4-dihydrothieno[3,2-d]pyrimidin-2-yl]piperidine-3-carboxylic acid]"
1.319,1.648,"CC(=O)Nc1ccc2nc3c(=O)[nH]c(=O)[nH]c3nc2c1 [Entry 234, N-(2,4-dioxo-1H-benzo[g]pteridin-8-yl)acetamide]"
1.303,1.736,"Cc1ccc(-c2n[nH]c3nc(-c4ccc(O)c(O)c4)cc(C(=O)O)c23)cc1 [Entry 180, 6-(3,4-dihydroxyphenyl)-3-(p-tolyl)-1H-pyrazolo[3,4-b]pyridine-4-carboxylic acid]"
1.084,1.585,"COc1ccc(C(=O)N2CCc3ccc(CNS(C)(=O)=O)cc32)cc1 [Entry 221, N-[[1-(4-methoxybenzoyl)-2,3-dihydroindol-6-yl]methyl]methanesulfonamide]"
1.218,1.522,"Cc1cc(C)c2c(=O)cc(CSc3nnc(-c4cccc(F)c4)n3C)[nH]c2c1 [Entry 106, 2-[[5-(3-fluorophenyl)-4-methyl-1,2,4-triazol-3-yl]sulfanylmethyl]-5,7-dimethyl-1H-quinolin-4-one]"

# From patent US12171755B2, “PAPD5 inhibitors and methods of use thereof” (Children's Medical Center Corporation, priority 2017, dated 2024)
